In US20260273028A1, “PEROXIDASE COMPOSITIONS CONTAINING IMPROVED ENHANCING AGENTS” (FLEN HEALTH PHARMA NV, priority 2022, published 2026):

How the values were obtained:
[1] = test system: Pseudomonas aeruginosa ATCC®9027™; assay: MBC determination, broth microdilution with CFU enumeration; format: cell-based; settings: P. aeruginosa
Procedure: (§1) The minimal bactericidal concentration (MBC) is defined as the lowest concentration of an antimicrobial agent that results in a complete killing of the microbial population (determined via standard CFU enumeration techniques) after overnight incubation. This endpoint measurement is used, together with the MIC (see above), to define the microbial susceptibility towards an antimicrobial agent. Here, the antimicrobial agent is a combination of the natural enzymes GOX+LPO.
(§2) To determine the MBC of the described combinations, a classical broth microdilution assay combined with standard CFU enumeration techniques was used to determine the susceptibility of a series of microbes commonly detected in infected wounds, including (a) the Gram-positive bacterium Staphylococcus aureus ATCC® 6538™ (results shown below), (b) the Gram-negative bacterium Pseudomonas aeruginosa ATCC®9027™ (results shown below), (c) the yeast Candida albicans ATCC®10231™ (results shown below), and (d) the fungus Aspergillus niger ATCC®16404™ (results shown below). In brief, the broth microdilution assay was set up as previously described (see 2.1). After incubation, the MBC was determined by investigating the presence of viable microorganisms at the MIC and following higher concentrations (MICx2, MICx4, and so on) using standard CFU enumeration techniques. For each combination evaluated, this test was repeated at least 5 times. The collected data were further analyzed in MS Excel. Mean concentration data (expressed as log CFU/ml) were visualized in a table format in which the MBC was highlighted.

[2] = test system: Aspergillus niger ATCC®16404™; assay: as above; format: cell-based; settings: A. niger
Procedure: as §1, §2

[3] = test system: S. aureus (ATCC®6538™); assay: Microbial challenge testing in alginogel with GOX+LPO; format: cell-based; settings: for antimicrobial activity of enhancing candidate only against S. aureus: alginogel without enzymes, highest concentration tested; for reduction in absolute S. aureus counts compared to reference (enzymes only): alginogel, 0.0075% GOX+LPO; for reduction in absolute S. aureus counts compared to guaiacol in the same concentration: alginogel with GOX+LPO, enhancer 0.0005%
Procedure: (§3) To determine the ability of an antimicrobial agent to elicit an antimicrobial preserving efficacy in a gel environment, a microbiological challenge test can be performed. Here, the antimicrobial agent is a combination of the natural enzymes GOX+LPO. […] Microbial challenge testing was performed according to the method described in the European Pharmacopoeia current version chapter 5.1.3 ‘Efficacy of antimicrobial preservation’, but with adapted time points (0, 10, 20, 30, 40, 50, 60, 70 and 80 min instead of 0, 2, 7, 14 and 28 days). In brief, for every enhancing agent to be evaluated, a lab-scale alginogel (based on the Flaminal® formulation, but without the original enhancer guaiacol) including 0.0075% GOX+LPO (1:1) was prepared according to standard practices. Enhancing agents were added to the alginogel in a final concentration ranging from 0.01 to 0,00025% (v/w). As a reference, an alginogel including 0.0075% GOX+LPO (1:1) without the addition of any enhancing agent was included (designated as: enzymes only). As a control, an alginogel without both GOX+LPO (1:1) enzyme solution and enhancing agent (designated as: empty gel) as well as an alginogel only containing the enhancing agent only (designated as: enhancing candidate only) were included. After preparation, a homogenous sample of 10 g was transferred into a 50 ml conical tube for each alginogel to be evaluated and microorganism to be tested. For each test microorganism, including S. aureus (ATCC®6538™), P. aeruginosa (ATCC®9027™), C. albicans (ATCC®10231™) and A. niger (ATCC®16404 ™), a microbial suspension of about 10^8 CFU/ml was prepared in sterile diluent (buffered sodium chloride-peptone solution). Then, the 50 ml conical tubes containing the alginogel samples to be evaluated were inoculated with 100 μl of the designated inoculum. At the start (time point 0) and after 0, 10, 20, 30, 40, 50, 60, 70 and 80 min, the number of viable microorganisms per gram product (expressed as CFU/g) was determined by transferring a sample of 0.5 g of the product into a 15 ml conical tube containing 4.5 ml of sterile diluent and applying general dilution and plate count techniques. For each combination evaluated, this test was repeated at least 1-3 times. The collected data were further analyzed in MS Excel. Mean absolute counts (expressed as log CFU/g) were visualized in a graph.
The purpose of the hereby described experiment was to compare the efficacy of antimicrobial activity enhancement of the GOX+LPO (1:1) enzyme combination by ethanolamine and proline in a microbial challenge test using S. aureus. The test was set up as described in the section on ‘challenge testing’ in Example 2.4. The test was repeated at least 3 times.
The purpose of the hereby described experiment was to compare the efficacy of antimicrobial activity of the GOX+LPO (1:1) enzyme combination in the presence of potassium chloride/potassium bromide and potassium iodide. A microbial challenge test using S. aureus was performed. The test was set up as described in the section on ‘challenge testing’ in Example 2.4.

[4] = test system: C. albicans (ATCC®10231™); assay: as above; format: cell-based; settings: for antimicrobial activity of enhancing candidate only against C. albicans: alginogel without enzymes, highest concentration tested; for reduction in absolute C. albicans counts compared to reference (enzymes only): alginogel, 0.0075% GOX+LPO; for reduction in absolute C. albicans counts compared to guaiacol in the same concentration: alginogel with GOX+LPO, enhancer 0.0005%
Procedure: as §3

[5] = test system: P. aeruginosa (ATCC®9027™); assay: as above; format: cell-based; settings: for antimicrobial activity of enhancing candidate only against P. aeruginosa: alginogel without enzymes, highest concentration tested; for reduction in absolute P. aeruginosa counts compared to reference (enzymes only): alginogel, 0.0075% GOX+LPO; for reduction in absolute P. aeruginosa counts compared to guaiacol in the same concentration: alginogel with GOX+LPO, enhancer 0.0005%
Procedure: as §3

[6] = test system: A. niger (ATCC®16404 ™); assay: as above; format: cell-based; settings: for reduction in absolute A. niger counts compared to guaiacol in the same concentration: alginogel with GOX+LPO; for antimicrobial activity of enhancing candidate only against A. niger: alginogel without enzymes, highest concentration tested; for reduction in absolute A. niger counts compared to reference (enzymes only): alginogel, 0.0075% GOX+LPO
Procedure: as §3

[7] = exemplary values; cited from earlier work

| reduction in absolute A. niger counts compared to reference (enzymes only) ([6]; enhancer 0,0025-0,0005%) | SMILES | MBC: GOX+LPO enzyme solution needed ([1]; enhancer 0,1%) | increase in MBC compared to reference ([1]; enhancer 0,1%) [×] | MBC: GOX+LPO enzyme solution needed ([1]; enhancer 1%) | increase in MBC compared to reference ([1]; enhancer 1%) [×] | antimicrobial activity of enhancing candidate only against S. aureus [3] | reduction in absolute S. aureus counts compared to reference (enzymes only) ([3]; enhancer 0.0025%) | antimicrobial activity of enhancing candidate only against C. albicans [4] | reduction in absolute C. albicans counts compared to reference (enzymes only) ([4]; enhancer 0.00125%) | reduction in absolute C. albicans counts compared to reference (enzymes only) ([4]; enhancer 0.0025%) | antimicrobial activity of enhancing candidate only against P. aeruginosa [5] | reduction in absolute P. aeruginosa counts compared to reference (enzymes only) ([5]; enhancer 0.0025%) | reduction in absolute A. niger counts compared to guaiacol in the same concentration ([6]; enhancer 0.0005%) | antimicrobial activity of enhancing candidate only against A. niger [6] | LogP (octanol/water partition coefficient) [7] | reduction in absolute S. aureus counts compared to guaiacol in the same concentration [3] | reduction in absolute S. aureus counts compared to reference (enzymes only) ([3]; enhancer 0.00125-0.0005%) | reduction in absolute C. albicans counts compared to guaiacol in the same concentration [4] | reduction in absolute P. aeruginosa counts compared to guaiacol in the same concentration [5] | reduction in absolute P. aeruginosa counts compared to reference (enzymes only) ([5]; enhancer 0.00125-0.0005%) | other results |
| --- | --- | --- | --- | --- | --- | --- | --- | --- | --- | --- | --- | --- | --- | --- | --- | --- | --- | --- | --- | --- | --- |
| faster complete reduction | NC(=O)C[C@H](N)C(=O)O [Asparagine, asparagine] | 0.000625 % (v/v) | 2 | 0.000156 % (v/v) | 8 | no antimicrobial activity | immediate entire reduction | no antimicrobial activity | faster complete reduction | immediate entire reduction | no antimicrobial activity | immediate entire reduction | faster complete reduction | no antimicrobial activity | LogP = −3.82 | – | – | – | – | – | MBC: GOX+LPO enzyme solution needed ([2]; enhancer 1%-0.05%): 0.000156 % (v/v); increase in MBC compared to reference ([2]; enhancer 1%-0.05%): 2 ×; reduction in absolute S. aureus counts compared to reference (enzymes only) ([3]; enhancer 0,00125%): faster complete reduction; reduction in absolute P. aeruginosa counts compared to reference (enzymes only) ([5]; enhancer 0,00125%): faster complete reduction |
| – | NC(=O)CC[C@H](N)C(=O)O [Glutamine, glutamine] | 0.000625 % (v/v) | 2 | 0.000156 % (v/v) | 8 | no antimicrobial activity | immediate entire reduction | no antimicrobial activity | – | immediate entire reduction | no antimicrobial activity | immediate entire reduction | – | no antimicrobial activity | LogP = −3.15 | faster complete reduction | faster complete reduction | faster complete reduction | faster complete reduction | faster complete reduction | MBC: GOX+LPO enzyme solution needed ([2]; enhancer 1%-0.01%): 0.000156 % (v/v); increase in MBC compared to reference ([2]; enhancer 1%-0.01%): 2 ×; reduction in absolute C. albicans counts compared to reference (enzymes only) ([4]; enhancer 0,00125-0,0005%): faster complete reduction; reduction in absolute A. niger counts compared to guaiacol in the same concentration ([6]; enhancer 0.0025%): faster complete reduction; reduction in absolute A. niger counts compared to reference (enzymes only) ([6]; enhancer 0.0025%): faster complete reduction |
| faster complete reduction | CC[C@H](C)[C@H](N)C(=O)O [Isoleucine, isoleucine] | 0.000625 % (v/v) | 2 | 0.000156 % (v/v) | 8 | no antimicrobial activity | immediate entire reduction | no antimicrobial activity | – | immediate entire reduction | no antimicrobial activity | immediate entire reduction | faster complete reduction | no antimicrobial activity | LogP = −1.72 | faster complete reduction | faster complete reduction | faster complete reduction | faster complete reduction | faster complete reduction | MBC: GOX+LPO enzyme solution needed ([2]; enhancer 1%-0.005%): 0.000156 % (v/v); increase in MIC compared to reference (MBC section) ([2]; enhancer 1%-0.005%): 2 ×; reduction in absolute C. albicans counts compared to reference (enzymes only) ([4]; enhancer 0,00125-0,0005%): faster complete reduction |
| – | O=C(O)[C@@H]1CCCN1 [Proline, proline] | – | – | – | – | no antimicrobial activity | immediate entire reduction | no antimicrobial activity | faster complete reduction | immediate entire reduction | no antimicrobial activity | immediate entire reduction | faster complete reduction | no antimicrobial activity | LogP = −2.54 | faster complete reduction | faster complete reduction | faster complete reduction | faster complete reduction | faster complete reduction | MBC: GOX+LPO enzyme solution needed ([1]; enhancer 0.0025-0.00125%): 0.000625 % (v/v); increase in MBC compared to reference or guaiacol solution ([1]; enhancer 0.0025-0.00125%): 2 ×; MBC: GOX+LPO enzyme solution needed ([1]; enhancer 0.01-0.005%): 0.000625 % (v/v); increase in MBC compared to reference or guaiacol solution ([1]; enhancer 0.01-0.005%): 2 ×; MBC: GOX+LPO enzyme solution needed ([2]; enhancer 1%-0.01%): 0.000156 % (v/v); increase in MBC compared to reference ([2]; enhancer 1%-0.01%): 2 ×; exposure time to complete reduction of absolute S. aureus counts (average) ([3]; alginogel with GOX+LPO (1:1), enhancer 0,0005% (v/v)): 60 min; reduction in absolute A. niger counts compared to reference (enzymes only) ([6]; enhancer 0.0025%): faster complete reduction |
